Measurements from patent US6743419B1, “Method of reducing hair growth employing sulfhydryl active compounds” (The Gillette Company, priority 1992, dated 2004).

Experiments:
[1] = Percent reduction in hair shaft cysteine (amino acid analysis of hamster flank organ hairs); format: in vivo; parameters: concentration or dose not given beside the values
hair growth = experiment: Inhibition of hair growth (hair mass, treated vs untreated site); format: in vivo, hamster
[2] = Reduction of cystine (generation of cysteine on incubation with cystine, HPLC); details: 37 C, pH 7.4
[3] = Formation of cysteine-mixed disulfide in vitro (incubation with cystine or cysteine, HPLC); details: pH 7.4, 37° C.
[4] = Formation of cysteine-mixed disulfide in hair shafts after topical treatment; format: in vivo, Golden Syrian hamsters; details: thirteen topical treatments over 18 days, flank organ

5′-Deoxy-5′-methylthioadenosine
Percent reduction in hair shaft cysteine ([1]; hamster flank organ hairs): 11% | Hair Mass Percent Reduction (hair growth; Dose 10%, Vehicle A, topical): 57 ± 6% | Hair Mass Treated (hair growth; Dose 10%, Vehicle A, topical): 1.25 ± 0.17 mg

O=C(O)CCCCC1CCSS1 (racemic) [DL-α-Lipoic acid (reduced form), DL-α-Lipoic acid]
Hair Mass Percent Reduction (hair growth; Dose 5%, Vehicle B, topical): 16 ± 5% | Hair Mass Treated (hair growth; Dose 5%, Vehicle B, topical): 2.67 ± 0.26 mg | Hair Mass Percent Reduction (hair growth; Dose 15%, Vehicle A, topical): 56 ± 6% | Hair Mass Treated (hair growth; Dose 15%, Vehicle A, topical): 0.74 ± 0.09 mg

O=S(=O)(O)CC(S)CS (stereo not shown) [2,3,-Dimercapto-1-propanesulfonic acid]
Percent reduction in hair shaft cysteine ([1]; hamster flank organ hairs): 40% | Reduction of Cystine [2]: YES | Formation of Cysteine mixed disulfide in-vitro [3]: YES | Hair Mass Percent Reduction (hair growth; Dose 20%, Vehicle A, topical): 79 ± 3% | Hair Mass Treated (hair growth; Dose 20%, Vehicle A, topical): 0.64 ± 0.08 mg

NCCS [2-Mercaptoethylamine (Cysteamine), 2-Mercaptoethylamine, reference compound]
Formation of Cysteine mixed disulfide in hair shaft [4]: YES | Percent reduction in hair shaft cysteine ([1]; hamster flank organ hairs): 50% | Reduction of Cystine [2]: YES | Formation of Cysteine mixed disulfide in-vitro [3]: YES | Hair Mass Percent Reduction (hair growth; Dose 20%, Vehicle A, topical): 86 ± 3% | Hair Mass Treated (hair growth; Dose 20%, Vehicle A, topical): 0.30 ± 0.09 mg

CCCCCCCCCCCCOC(=O)CCSCCC(=O)OCCCCCCCCCCCC [3,3′-Thiodipropionic acid dilauryl ester]
Hair Mass Percent Reduction (hair growth; Dose 5%, Vehicle D, topical): 30 ± 7% | Hair Mass Treated (hair growth; Dose 5%, Vehicle D, topical): 1.70 ± 0.21 mg | Hair Mass Percent Reduction (hair growth; Dose 20%, Vehicle D, topical): 50 ± 4% | Hair Mass Treated (hair growth; Dose 20%, Vehicle D, topical): 1.07 ± 0.10 mg

O=C(O)CCSCCC(=O)O [3,3′-Thiodipropionic acid]
Hair Mass Percent Reduction (hair growth; Dose 20%, Vehicle A, topical): 73 ± 4% | Hair Mass Treated (hair growth; Dose 20%, Vehicle A, topical): 0.76 ± 0.12 mg

CSCCCN [3-(Methylthio)-propylamine]
Hair Mass Percent Reduction (hair growth; Dose 2%, Vehicle A, topical): 22 ± 13% | Hair Mass Treated (hair growth; Dose 2%, Vehicle A, topical): 0.97 ± 0.13 mg

O=C(O)CCCSSCCCC(=O)O [3-Carboxypropyl disulfide]
Hair Mass Percent Reduction (hair growth; Dose 15%, Vehicle A, topical): 74 ± 4% | Hair Mass Treated (hair growth; Dose 15%, Vehicle A, topical): 0.70 ± 0.14 mg

C=CCSCC=C [Allyl sulfide]
Hair Mass Percent Reduction (hair growth; Dose 20%, Vehicle B, topical): 17 ± 10% | Hair Mass Treated (hair growth; Dose 20%, Vehicle B, topical): 1.74 ± 0.16 mg

C[C@H](CS)C(=O)N1CCC[C@H]1C(=O)O [Captopril, reference compound]
Percent reduction in hair shaft cysteine ([1]; hamster flank organ hairs): 26% | Reduction of Cystine [2]: YES | Formation of Cysteine mixed disulfide in-vitro [3]: YES | Hair Mass Percent Reduction (hair growth; Dose 10%, Vehicle A, topical): 57 ± 5% | Hair Mass Treated (hair growth; Dose 10%, Vehicle A, topical): 1.49 ± 0.20 mg

N[C@@H](CS)C(=O)NCC(=O)O [Cystenyl-glycine]
Reduction of Cystine [2]: YES | Hair Mass Percent Reduction (hair growth; Dose 15%, Vehicle A, topical): 55 ± 8% | Hair Mass Treated (hair growth; Dose 15%, Vehicle A, topical): 0.93 ± 0.18 mg

N[C@H](CS)C(=O)O [D-Cysteine]
Hair Mass Percent Reduction (hair growth; Dose 10%, Vehicle A, topical): 60 ± 3% | Hair Mass Treated (hair growth; Dose 10%, Vehicle A, topical): 1.20 ± 0.17 mg

CC(C)(SSC(C)(C)[C@@H](N)C(=O)O)[C@@H](N)C(=O)O [D-Penicillamine disulfide]
Hair Mass Percent Reduction (hair growth; Dose 15%, Vehicle A, topical): 55 ± 4% | Hair Mass Treated (hair growth; Dose 15%, Vehicle A, topical): 1.09 ± 0.23 mg

CC(C)(S)[C@@H](N)C(=O)O [D-Penicillamine, reference compound]
Formation of Cysteine mixed disulfide in hair shaft [4]: YES | Percent reduction in hair shaft cysteine ([1]; hamster flank organ hairs): 50% | Formation of Cysteine mixed disulfide in-vitro [3]: YES | Hair Mass Percent Reduction (hair growth; Dose 15%, Vehicle A, topical): 65 ± 5% | Hair Mass Treated (hair growth; Dose 15%, Vehicle A, topical): 0.57 ± 0.07 mg

CCN(CC)C(=S)S [Diethyldithiocarbamic acid]
Percent reduction in hair shaft cysteine ([1]; hamster flank organ hairs): 18% | Hair Mass Percent Reduction (hair growth; Dose 15%, Vehicle A, topical): 68 ± 7% | Hair Mass Treated (hair growth; Dose 15%, Vehicle A, topical): 0.65 ± 0.09 mg

O=S(=O)(O)CCO [Isethionic acid]
Hair Mass Percent Reduction (hair growth; Dose 15%, Vehicle A, topical): 50 ± 7% | Hair Mass Treated (hair growth; Dose 15%, Vehicle A, topical): 1.45 ± 0.22 mg

CCOC(=O)[C@@H](N)CS [L-Cysteine ethyl ester]
Hair Mass Percent Reduction (hair growth; Dose 20%, Vehicle A, topical): 82 ± 3% | Hair Mass Treated (hair growth; Dose 20%, Vehicle A, topical): 0.49 ± 0.08 mg

COC(=O)[C@@H](N)CS [L-Cysteine methyl ester]
Hair Mass Percent Reduction (hair growth; Dose 20%, Vehicle A, topical): 86 ± 3% | Hair Mass Treated (hair growth; Dose 20%, Vehicle A, topical): 0.28 ± 0.07 mg

CC(=O)N[C@@H](CS)C(=O)O [N-Acetyl-L-Cysteine, reference compound]
Hair Mass Percent Reduction (hair growth; Dose 15%, Vehicle A, topical): 80 ± 4% | Hair Mass Treated (hair growth; Dose 15%, Vehicle A, topical): 0.39 ± 0.07 mg

NCCSC[C@H](N)C(=O)O [S-2-Aminoethyl-L-cysteine]
Hair Mass Percent Reduction (hair growth; Dose 20%, Vehicle A, topical): 50 ± 11% | Hair Mass Treated (hair growth; Dose 20%, Vehicle A, topical): 0.99 ± 0.20 mg

O=C(O)c1cc(/N=N/c2ccc(S(=O)(=O)Nc3ccccn3)cc2)ccc1O [Sulfasalazine, reference compound]
Percent reduction in hair shaft cysteine ([1]; hamster flank organ hairs): (−2%) | Hair Mass Percent Reduction (hair growth; Dose 20%, Vehicle C, topical): 61 ± 6% | Hair Mass Treated (hair growth; Dose 20%, Vehicle C, topical): 0.88 ± 0.14 mg

O=C(O)c1ccccc1S [Thiosalicylic acid]
Percent reduction in hair shaft cysteine ([1]; hamster, in vivo): 14% | Hair Mass Percent Reduction (hair growth; hamster, in vivo): 89 ± 2% | Hair Mass Treated (hair growth; hamster, in vivo): 0.18 ± 0.04 mg

O=C(O)[C@@H](S)[C@@H](S)C(=O)O [meso-2,3,-Dimercaptosuccinic acid]
Percent reduction in hair shaft cysteine ([1]; hamster flank organ hairs): 22% | Reduction of Cystine [2]: YES | Hair Mass Percent Reduction (hair growth; Dose 20%, Vehicle C, topical): 50 ± 5% | Hair Mass Treated (hair growth; Dose 20%, Vehicle C, topical): 1.08 ± 0.16 mg
